# Assay results reported in publication PMC10257291, “Biological activities of extracts and compounds from Thai Kae-Lae (Maclura cochinchinensis (Lour.) Corner)” (BMC Complementary Medicine and Therapies, 2023).
# Columns and labels:
# RBC haemolysis induction = conditions: human, 2% red blood cell suspension
# Method: The whole blood samples were obtained from normal volunteers. Red blood cells were separated by centrifugation and washed 2 times with 0.9% NaCl. Then, 2% RBC suspension was incubated with crude fractional extracts and compounds at 37 °C for 30 min. Triton-X 100 (2%) and NaCl (0.9%) were positive and negative controls, respectively. Then, the supernatant was collected, and haemoglobin concentration was measured by spectrophotometry at 540 nm. The haemolysis induction was calculated using the following equation:5 %Haemolysisinduction=Absorbance of sample/Absorbance of positive contr×100
# PBMCs = experiment: Cytotoxicity of PBMCs by MTT assay; type: cell-based; conditions: Homo sapiens, PBMC, 48 h, normal PBMCs, read-out: IC50 values (mean ± SD) PBMCs
# Method: Method was done as previously described. Briefly, peripheral blood mononuclear cells (PBMCs) were obtained from healthy donors using Ficoll-Hypaque density-gradient centrifugation using Lymphoprep™ solution (Axis-Shield, Oslo, Norway). The PBMCs (1 × 10^6 cells/mL) were cultured in complete RPMI-1640 medium in 96-well plates overnight in a CO2 incubator. […] Then cells were further incubated for 48 h. The survival rate of cells was assessed using the MTT assay.
# KG-1a cells = experiment: Cytotoxicity by MTT assay in KG-1a cells; type: cell-based; conditions: Homo sapiens, 48 h, read-out: IC50 values (mean ± SD) KG-1a
# Method: (§1) Leukaemic cell lines including KG-1a (leukaemic stem cell-like cell line with stem cell population), EoL-1 (human […] leukaemic cell line), and K562 (human erythroid leukaemic cell line) were cultured as previously described. The MTT (3-(4,5-dimethylthiazol-2-yl)-2,5-diphenyltetrazolium bromide) assay was used to determine the cytotoxicity of […] extracts and active compounds on leukaemic cells. The method was described previously. K562 (1.0 × 10^5 cells/mL), EoL-1 (3.0 × 10^5 cells/mL), and KG-1a (2.0 × 10^5 cells/mL) were added samples and then incubated for 48 h. The percentage of surviving cells was calculated using the following equation: 1 %Cellviability=Meanabsorbanceintestwell/[…] 50% inhibitory concentration (IC50) was determined as the lowest concentration that inhibited cell growth by 50% compared with the untreated control.
# EoL-1 cells [1] = experiment: Cytotoxicity by MTT assay in EoL-1 cells; type: cell-based; conditions: Homo sapiens, EOL1, 48 h, read-out: IC50 values (mean ± SD) EoL-1
# Method: as §1
# K562 cells [2] = experiment: Rate of proliferation, K562 cells; type: cell-based, human; conditions: for decrease of rate of proliferation, K562 cells: IC20 value, 24 and 48 h (time-response), vs control; for rate of cell proliferation, K562 cells (in words): concentrations IC10 − IC20 values, 48 h
# Method: (§2) According to the principle of trypan blue exclusion, viable cells with intact membranes can exclude trypan blue dye, while dead cells with compromised membranes are stained by the trypan blue dye solution. A cell suspension and trypan blue dye solution (0.2%) were mixed, and viable and dead cells were counted under microscope using a hemacytometer. Then, the percentage of viable cells was calculated. KG-1a, EoL-1 and K562 cells were cultured with crude fractional extracts and active pure compounds at various concentrations (10 − 20% growth inhibition; IC10 − IC20 values) of each extract for 48 h, at a 20% growth inhibition (IC20 value) of each extract for 24 and 48 h. Following incubation, cells were harvested, and the total cell number was counted using trypan blue exclusion method. Three independent experiments were plotted as a dose–response curve and compared with the vehicle control. Meanwhile, the total cell number of each cell line after fractional extract and pure compound treatments at 24 and 48 h were calculated and plotted as a time-response curve. Slopes from each graph were considered as the rate of cell proliferation.
# IL-2 = IL-2 secretion in PHA-stimulated PBMCs (ELISA); type: cell-based, human; conditions: sample at IC20 value, vs dexamethasone 1 μg/mL
# Excerpt: Mouse monocyte macrophage RAW 264.7 cells (American Type Culture Collection, […]-71) were stimulated with lipopolysaccharide (LPS) or phytohemagglutinin (PHA). The LPS treated RAW 264.7 cells served as a vehicle control, of which the NO production, and the secreted cytokines were defined as 100%, whereas a negative control was non-treated RAW 264.7 cells. Dexamethasone (an anti-inflammatory drug) was used as a positive control. PBMCs (1 × 10^5 cells/well in RPMI-1640 for IL-2) and Raw cells (1 × 10^5 cells/well in DMEM for TNF-α) were seeded for 24 h in a CO2 incubator set at 37 °C and 5% CO2/95% humidified air. Then cells were treated with […] fractional extracts (IC20 value) or pure compounds (IC20 value), or dexamethasone (1 μg/mL) were added. Following 2-h of incubation in a CO2 incubator, LPS was treated for a final dose of 1 μg/mL under conditions of TNF-α measurement. In contrast, PHA was added to induce inflammation in IL-2 measurement. After 24 h, the media were removed and centrifuged at 13,500 × g for 10 min and 100 μL of the supernatant was analysed by the protocol of R&D Systems, Minneapolis, MN, USA using ELISA technique. The absorbance was measured at 450 nm and corrected with the reference wavelength of 570 nm (Beckman CoulterDTX880, Fullerton, CA, USA). Viability of PBMCs and RAW 264.7 cells was also determined using MTT assay as described previously. IL-2 and TNF-α secretion inhibitions were calculated as bellow:4 %Cytokineinhibition=A-B/A×100 A is the optical density of the mixture without the sample, while B is the optical density of the mixture with the sample. Dexamethasone was a positive control. All experiments were done in triplicate.
# EoL-1 cells [3] = experiment: Rate of proliferation, EoL-1 cells; type: cell-based, human; conditions: for decrease of rate of proliferation, EoL-1 cells: IC20 value, 24 and 48 h (time-response), vs control; for rate of cell proliferation, EoL-1 cells (in words): concentrations IC10 − IC20 values, 48 h
# Method: as §2
# RAW 264.7 cells = experiment: RAW 264.7 cell viability by MTT assay; type: cell-based; conditions: Mus musculus, RAW264.7, read-out: IC20 values (concentrations at 80% of RAW 264.7 cells)
# Method: Mouse monocyte macrophage RAW 264.7 cells (American Type Culture Collection, […]-71) were stimulated with lipopolysaccharide (LPS) or phytohemagglutinin (PHA). The LPS treated RAW 264.7 cells served as a vehicle control, of which the NO production, and the secreted cytokines were defined as 100%, whereas a negative control was non-treated RAW 264.7 cells. Dexamethasone (an anti-inflammatory drug) was used as a positive control. RAW 264.7 cell viability was also determined with the assay kit using MTT assay. The supernatant was removed, and MTT was added. After 2 h in a CO2 incubator, the supernatant was removed, and the formazan crystal were dissolved with DMSO. The optical density was measured at 578 nm and corrected with the reference wavelength of 630 nm using a multimode detector (Beckman CoulterDTX880, Fullerton, CA, USA). NO inhibitions were calculated using the following equation: […]
# K562 cells [4] = experiment: Cytotoxicity by MTT assay in K562 cells; type: cell-based; conditions: Homo sapiens, 48 h, read-out: IC50 values (mean ± SD) K562
# Method: as §1
SMILES,"hemolysis at 30 min, 50 μg/mL (RBC haemolysis induction) [%]","hemolysis at 30 min, 100 μg/mL (RBC haemolysis induction) [%]","hemolysis at 30 min, 150 μg/mL (RBC haemolysis induction) [%]",IC50 (PBMCs) [µg/mL],IC50 (KG-1a cells) [µg/mL],IC50 (EoL-1 cells [1]) [µg/mL],"decrease of rate of proliferation, K562 cells (K562 cells [2])","rate of cell proliferation, K562 cells (in words) (K562 cells [2])",IL-2 inhibition (IL-2),"decrease of rate of proliferation, EoL-1 cells (EoL-1 cells [3])",IC20 (RAW 264.7 cells) [µg/mL],IC50 (K562 cells [4]) [µg/mL],"hemolysis at 30 min, 10 μg/mL (RBC haemolysis induction) [%]","rate of cell proliferation, EoL-1 cells (in words) (EoL-1 cells [3])","hemolysis at 30 min, 20 μg/mL (RBC haemolysis induction) [%]","hemolysis at 30 min, 40 μg/mL (RBC haemolysis induction) [%]"
"O=c1c(O)c(-c2ccc(O)cc2O)oc2cc(O)cc(O)c12 [Morin, 2’,3,4’,5,7-pentahydroxyflavonone]",9.39 ± 1.34,9.82 ± 1.09,10.2 ± 1,> 100,> 100,18.4 ± 1.6,decrease the proliferation rate,"significant difference at concentrations of 70, 80, and 90 µg/mL",suppressed IL-2 significantly better than dexamethasone,decrease the proliferation rate,62.4 ± 7.44,> 100,,,,
"O=c1c(O)c(-c2ccc(O)c(O)c2)oc2cc(O)cc(O)c12 [Quercetin, quercetin]",8.85 ± 0.21,8.74 ± 0.26,,> 100,72.6 ± 7.45,5.89 ± 0.46,significantly decreasing rates of proliferation,significantly decreasing rate of cell proliferation,suppressed IL-2 significantly better than dexamethasone,significantly decreasing rates of proliferation,35.5 ± 6.49,> 100,8.51 ± 0.86,significantly decreasing rate of cell proliferation,,
"Oc1ccc(/C=C/c2cc(O)cc(O)c2)cc1 [Resveratrol, resveratrol]",,,,44 ± 9.7,20.7 ± 2.65,5.49 ± 0.29,93.20%,significantly decreasing rate of cell proliferation,suppressed IL-2 significantly better than dexamethasone,95.45%,3.4 ± 0.2,41.6 ± 1.92,8.96 ± 1.83,significantly decreasing rate of cell proliferation,8.58 ± 0.67,8.95 ± 0.21
